Patent US8026236B2, “6-phenyl-1H-imidazo[4,5-c]pyridine-4-carbonitrile derivatives” (N.V. Organon, priority 2009, dated 2011)

Target: recombinant human Cathepsin S (Homo sapiens, UniProt P25774)
Assay: Cathepsin S assay procedure (inhibition of recombinant human Cathepsin S, fluorogenic substrate Z-Val-Val-Arg-AMC)
Type: biochemical
Details: pH5.5, 20 minutes, read-out: pIC50 (negative logarithm of the IC50 concentration) for inhibition of human cathepsin S (converted)
Experimental: To a 384 well microtitre plate is added 10 μl of a 1000 solution of test compound in assay buffer (100 mM sodium acetate pH5.5, 5 mM EDTA, 5 mM dithiothreitol) with 10% dimethylsulfoxide (DMSO), plus 200 of 2500 solution of the substrate Z-Val-Val-Arg-AMC (7-amido-coumarine derivative of the tripeptide N-benzyloxy-carbonyl-Val-Val-Arg-OH) in assay buffer and 45 μl of assay buffer. 25 μl of a 2 mg/l solution of activated recombinant human cathepsin S, in assay buffer, is then added to the well, yielding a final inhibitor concentration of 10 μM. Enzyme activity is determined by measuring the fluorescence of the liberated aminomethylcoumarin at […] using 390 nm excitation, at 20 minutes. Percentage enzyme activity is calculated by comparison of this activity to that of a solution containing no inhibitor. Compounds are subsequently subjected to a dose response curve analysis in order to determine IC50 values for active compounds (where IC50 is the concentration of test compound causing 50% inhibition of the enzymatic activity). Compounds of the invention typically have a pIC50 (negative logarithm of the IC50 concentration) for inhibition of human cathepsin S of more than 6. Most compounds of the invention have a pIC50 of more than 7, such as exemplified by the compounds of examples 1a, 1b, 2a, 7d, 12a, 14a, 14b, 14c, 14d, 14e, 14f, 14g, 14h, 14i, 17, 18.

Chain of recombinant human Cathepsin S (P25774 115-331): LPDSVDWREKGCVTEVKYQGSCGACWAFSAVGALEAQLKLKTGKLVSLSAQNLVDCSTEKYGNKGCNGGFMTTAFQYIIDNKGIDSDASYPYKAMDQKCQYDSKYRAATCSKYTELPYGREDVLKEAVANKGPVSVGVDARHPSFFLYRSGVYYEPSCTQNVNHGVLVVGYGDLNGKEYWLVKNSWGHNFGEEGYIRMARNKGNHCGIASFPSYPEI

In the case of `CC(=O)Nc1cccc(COc2ccc(-c3cc4c(ncn4C)c(C#N)n3)cc2C(F)(F)F)c1` [Example 17], the IC50 was under 0.1 µM.
